Earlier results, collected in paper PMC9184245 (Journal of Pesticide Science, 2022).

How the values were obtained:
[1] = measured value from experimental database; ref EPI Suite ver. 4.11
[2] = measured value; ref REACH registered substances database
fish = settings: biomagnification factor, corrected by lipid content and growth rate

Water solubility [2]	SMILES	log Kow [1]	Bioaccumulation potential, BMF (fish)
	c1ccc(-c2ccccc2-c2ccccc2)cc1 [Compound 2, o-Terphenyl]	5.52^a^)	
	COc1ccc(C(c2ccc(OC)cc2)C(Cl)(Cl)Cl)cc1 [Compound 4, Methoxychlor]	5.08^a^)	
<0.1^c^) mg/L	CC(C)(C)c1cc(CCC(=O)OCC(COC(=O)CCc2cc(C(C)(C)C)c(O)c(C(C)(C)C)c2)(COC(=O)CCc2cc(C(C)(C)C)c(O)c(C(C)(C)C)c2)COC(=O)CCc2cc(C(C)(C)C)c(O)c(C(C)(C)C)c2)cc(C(C)(C)C)c1O [Compound 9, Pentaerythritol tetrakis[3-(3,5-di-tert-butyl-4-hydroxyphenyl)propionate]]		
	O=[N+]([O-])c1ccc(Oc2ccc(Cl)cc2Cl)cc1 [Compound 3, Nitrofen]	4.64^a^)	BMF^d^)=0.179[4])
	c1ccc2c(c1)ccc1ccccc12 [Compound 1, Phenanthrene]	4.46^a^)	
